Patent US20160138114A1, “Biomarkers of Response to Inhibition of Poly-ADP Ribose Polymerase (PARP) in Cancer” (THE REGENTS OF THE UNIVERSITY OF CALIFORNIA, priority 2013, published 2016)

Tests used:
184B5 = test: BMN673 sensitivity (cell growth) in cancer cell line; format: cell-based, human; conditions: 184B5, Breast
Method: (§1) This example illustrates that CHD1L amplification correlated with overexpression of CHD1L protein. […] CHD1L protein expression in the NSCLC and breast cancer cell lines was assayed by Western blot with antibodies against CHD1L. […] HCC1937 was used as a negative control for CHD1L protein expression, as the cell line carries a loss of heterozygosity (LOH) of CHD1L. Each of these cell lines was also assayed for sensitivity or resistance to inhibition of PARP by BMN673. Briefly, each cell line was cultured and exposed to a range of concentrations of BMN673 to determine an IC50 value of inhibitory effect on PARP (as evidenced by cell growth) for each cell line (see Table 2).

BT-20 = test: as above; format: cell-based, human; conditions: BT-20, Breast
Method: as §1

BT-474 = test: as above; format: cell-based, human; conditions: BT-474, Breast
Method: as §1

CaLu1 = test: as above; format: cell-based, human; conditions: CaLu1, Lung
Method: as §1

EMF192A = test: as above; format: cell-based, human; conditions: Breast
Method: as §1

H1568 = test: as above; format: cell-based, human; conditions: H1568, Lung
Method: as §1

H1651 = test: as above; format: cell-based, human; conditions: H1651, Lung
Method: as §1

H1838 = test: as above; format: cell-based, human; conditions: H1838, Lung
Method: as §1

HCC1187 = test: as above; format: cell-based, human; conditions: HCC1187, Breast
Method: as §1

HCC1937 = test: as above; format: cell-based, human; conditions: HCC1937, Breast
Method: as §1

MCF7 = test: as above; format: cell-based, human; conditions: MCF7, Breast
Method: as §1

MDA-MB-436 = test: as above; format: cell-based, human; conditions: MDA-MB-436, Breast
Method: as §1

184B5 parental cell line = test: BMN673 treatment of CHD1L knock-in study, parental line; format: cell-based; conditions: Homo sapiens, low CHD1L protein expression
Method: (§2) This example illustrates the creation of cell lines overexpressing CHD1L protein by vector knock-in. Briefly, breast cancer cell line 184B5 cells were transduced with lentivirus containing CHD1L cDNA. After transduction, clones transfected with CHD1L were selected with 500 μg/mL G418 for 1 week. Expression of CHD1L protein in the 24 knock-in clones and the parental cell line 184B5 was detected by Western blot. […] This example illustrates that the knock-in of CHD1L protein sensitized breast cancer cells to BMN673 treatment. Briefly, 184B5 knock-in clones 7 and 14 (i.e., cells with high CHD1L protein expression) were treated with BMN673 and compared with the 184B5 parental cell line (i.e., cells with low CHD1L protein expression) treated with BMN673, with respect to percent death from baseline (FIG. 5, top panel) and percent growth inhibition (FIG. 5, bottom panel).

[1] = system: 184B5 CHD1L knock-in clone 14; test: BMN673 treatment of CHD1L knock-in clone; format: cell-based; conditions: Homo sapiens; 184B5 knock-in clone 14, high CHD1L protein expression
Method: as §2

[2] = system: 184B5 CHD1L knock-in clone 7; test: BMN673 treatment of CHD1L knock-in clone; format: cell-based; conditions: Homo sapiens; 184B5 knock-in clone 7, high CHD1L protein expression
Method: as §2

Question: For `Cn1ncnc1[C@H]1c2n[nH]c(=O)c3cc(F)cc(c23)N[C@@H]1c1ccc(F)cc1` [BMN673], which Response (184B5) is on record?
Answer: resistant and Res

Question: What about the IC50 (184B5; Homo sapiens, 1q21 NC) of the same compound?
Answer: 5.48 µM

Question: And the Response (BT-20)?
Answer: resistant and Res

Question: What about the IC50 (BT-20; Homo sapiens, 1q21 NC) of the same compound?
Answer: 0.352 µM

Question: What about the Response (BT-474) of the same compound?
Answer: resistant and Res

Question: What about the IC50 (BT-474; Homo sapiens, 1q21 NC) of the same compound?
Answer: 0.595 µM

Question: What about the Response (CaLu1) of the same compound?
Answer: resistant and Res

Question: What about the IC50 (CaLu1; Homo sapiens, Calu-1, 1q21 NC) of the same compound?
Answer: 2.56 µM

Question: And the Response (EMF192A)?
Answer: resistant and Res

Question: And the IC50 (EMF192A; Homo sapiens, 1q21 NC)?
Answer: 0.897 µM

Question: What about the Response (H1568) of the same compound?
Answer: Int

Question: And the IC50 (H1568; Homo sapiens, NCI-H1568, 1q21 AMP)?
Answer: 0.0498 µM

Question: And the Response (H1651)?
Answer: sensitive and Sens

Question: And the IC50 (H1651; Homo sapiens, NCI-H1651, 1q21 AMP)?
Answer: 0.00631 µM

Question: What about the Response (H1838) of the same compound?
Answer: sensitive and Sens

Question: And the IC50 (H1838; Homo sapiens, NCI-H1838, 1q21 AMP)?
Answer: 0.0012 µM

Question: And the Response (HCC1187)?
Answer: sensitive and Sens

Question: And the IC50 (HCC1187; Homo sapiens, 1q21 AMP)?
Answer: 0.00109 µM

Question: What about the Response (HCC1937) of the same compound?
Answer: Int

Question: And the IC50 (HCC1937; Homo sapiens, 1q21 LOH)?
Answer: 0.0842 µM

Question: And the IC50 (MCF7; Homo sapiens, 1q21 AMP)?
Answer: 0.0928 µM

Question: And the Response (MCF7)?
Answer: sensitive and Int

Question: What about the IC50 (MDA-MB-436; Homo sapiens, 1q21 AMP) of the same compound?
Answer: 0.00019 µM

Question: And the Response (MDA-MB-436)?
Answer: sensitive and Sens

Question: And the IC50 (184B5 parental cell line)?
Answer: ~1 µM

Question: What about the IC50 [1] of the same compound?
Answer: 0.03 µM

Question: What about the IC50 [2] of the same compound?
Answer: 0.062 µM
